Measured values reported in US12227520B2 (priority 2019, dated 2025).
Like-named read-outs stand apart in the source and are kept apart here.

Experiments:
HIV-1 (IIIB) = assay: Antiviral assay in MT-4 cells (HIV MT-4 antiviral assay); assay type: cell-based; settings: Human immunodeficiency virus 1, IIIB, MT4, 120 h, HIV-1 (IIIB) in MT-4 cells, 5 days incubation
Summary of the method: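 MT-4 cells infected with HIV-1 IIIB (1:250 diluted stock) and exposed to 1:3 serially diluted compound in RPMI with 10% FBS. Viability read by CellTiter-Glo luminescence after 5 days at 37° C; mock-infected cells and 5 μM AZT as controls.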

[1] = Cytotoxicity assay in MT-4 cells; assay type: cell-based, human; settings: human
Summary of the method: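 Infected MT-4 cells (HIV-1 IIIB, fresh 1:250 dilution of concentrated stock) or mock-infected cells exposed to compounds for 5 days at 37 °C. Viability by CellTiter-Glo luminescence; 5 μM AZT positive control, no-drug negative control. Uninfected cells used for cytotoxicity, with 10 μM puromycin as base-level cytotoxicity control.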

pLai RLuc reporter virus = assay: microbe, parasite or virus in culture; assay type: cell-based, HIV; settings: Human immunodeficiency virus 1, 72 h
Summary of the method: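 MT-4 cells pre-infected 2 h at 37 °C with pLai RLuc virus, then exposed to 1:3 serial dilutions of compound in RPMI/10% FBS with or without 50% human serum for 72 h at 37 °C. Renilla luminescence read-out; serum shift = EC50(HS/CCM)/EC50(CCM).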

[2] = uninfected MT-4 cells, 5 days incubation, read-out: CC50
[3] = read-out: Antiviral Serum Shift RLuc 50% HS, HS/CCM (RPMI media, 10% FBS, 50% HS, 1% P/S), 72-h incubation
[4] = read-out: Antiviral Serum Shift RLuc CCM, CCM (RPMI media, 10% FBS, 1% P/S), 72-h incubation

| Structure (SMILES) | EC50 (HIV-1 (IIIB); read-out: EC50) [nM] | CC50 at 5 days [1, 2] [nM] | EC50 (pLai RLuc reporter virus; [3]) [nM] | EC50 (pLai RLuc reporter virus; [4]) [nM] | EC50 (HIV-1 (IIIB)) [nM] | CC50 at 5 days ([1]; CC50) [nM] |
| --- | --- | --- | --- | --- | --- | --- |
| O=C(NCc1c(F)cc(F)cc1F)c1cn2c(c(O)c1=O)C(=O)N1CCc3ccc(Br)cc3[C@@H]2C1 (single isomer, unassigned) [Example 122-2] | 14.4 | 4770 | 298 | 3.77 |  |  |
| O=C(NCc1c(F)cc(F)cc1F)c1cn2c(c(O)c1=O)C(=O)N1Cc3cc(F)c(F)cc3C[C@@H]2C1 (single isomer, unassigned) [Example 159] | 3.52 | > 43600 | 2.56 | 0.976 |  |  |
| O=C(NCc1c(F)cc(F)cc1F)c1cn2c(c(O)c1=O)C(=O)N1C[C@@H]3CC[C@@H](C3)[C@@H]2C1 [Example 41-2, (4R,7S,8R)-13-hydroxy-1,12-dioxo-N-(2,4,6-trifluorobenzyl)-1,3,4,5,6,7,8,12-octahydro-2,8:4,7-dimethanopyrido[1,2-a][1,4]diazecine-11-carboxamide] | 1.4 | 14300 | 0.968 | 0.26 |  |  |
| O=C(NCc1ccc(F)cc1F)c1cn2c(c(O)c1=O)C(=O)N1CCC[C@@H]3C[C@]32C1 [Example 65-1, (1aR,11aR)—N-(2,4-difluorobenzyl)-7-hydroxy-6,8-dioxo-1a,2,3,4,6,8-hexahydro-1H-5,11a-methanocyclopropa[h]pyrido[1,2-a][1,4]diazonine-9-carboxamide] | 1.73 | 8800 | 28.5 | 0.297 |  |  |
| C[C@H]1CC(F)(F)C[C@H]2CN1C(=O)c1c(O)c(=O)c(C(=O)NCc3c(F)cc(F)cc3F)cn12 [Example 113, (3S,7S)-5,5-difluoro-12-hydroxy-3-methyl-1,11-dioxo-N-(2,4,6-trifluorobenzyl)-1,4,5,6,7,11-hexahydro-3H-2,7-methanopyrido[1,2-a][1,4]diazonine-10-carboxamide] | 1.42 | 16900 | 0.62 | 0.514 |  |  |
| O=C(NCc1ccc(F)cc1F)c1cn2c(c(O)c1=O)C(=O)N1C[C@@H]2CC=C[C@@H]1CF [Example 188] |  | 12200 | 3.48 | 0.421 | 1.19 |  |
| C[C@@H]1CC[C@H](C)[C@@H]2CN1C(=O)c1c(O)c(=O)c(C(=O)NCc3c(F)cc(F)cc3F)cn12 [Example 151-1, (3R,6S,7R)-12-hydroxy-3,6-dimethyl-1,11-dioxo-N-(2,4,6-trifluorobenzyl)-1,4,5,6,7,11-hexahydro-3H-2,7-methanopyrido[1,2-a][1,4]diazonine-10-carboxamide] | 4.27 | 14700 | 1140 | 0.729 |  |  |
| O=C(NCc1c(F)cc(F)cc1F)c1cn2c(c(O)c1=O)C(=O)N1C[C@@H]2C[S+]([O-])c2ccccc21 (stereo partly drawn) [Example 95, (6R)-1-hydroxy-2,14-dioxo-N-(2,4,6-trifluorobenzyl)-2,6,7,14-tetrahydro-6,13-methanobenzo[b]pyrido[2,1-f][1,4,7]thiadiazonine-3-carboxamide 8-oxide] | 31.5 | > 50000 | 4.84 | 5.18 |  |  |
| C[C@H]1CCC[C@@H]2CN1C(=O)c1c(O)c(=O)c(C(=O)NCc3ccc(F)cc3F)cn12 [Example 52-2, (3S, 7R)—N-(2,4-difluorobenzyl)-12-hydroxy-3-methyl-1,11-dioxo-1,4,5,6,7,11-hexahydro-3H-2,7-methanopyrido[1,2-a][1,4]diazonine-10-carboxamide] | 1.68 | 5840 | 2.19 | 0.384 |  |  |
| O=C(NCc1c(F)cc(F)cc1F)c1cn2c(c(O)c1=O)C(=O)N1CCc3cc(F)c(F)cc3[C@@H]2C1 (single isomer, unassigned) [Example 110-2] | 30.5 | 6330 | 53.7 | 4.81 |  |  |
| O=C(NCc1c(F)cc(F)cc1F)c1cn2c(c(O)c1=O)C(=O)N1CCC[C@H](O)C[C@H]2C1 [Example 82-1, (6S,8S)-6,13-dihydroxy-1,12-dioxo-N-(2,4,6-trifluorobenzyl)-1,3,4,5,6,7,8,12-octahydro-2,8-methanopyrido[1,2-a][1,4]diazecine-11-carboxamide] | 20.5 | > 50000 | 5.16 | 4.5 |  |  |
| O=C(NCc1c(F)cc(F)cc1F)c1cn2c(c(O)c1=O)C(=O)N1CCc3ccccc3[C@H]2C1 (single isomer, unassigned) [Example 63-1] | 1.7 | 13800 | 2.16 | 0.461 |  |  |
| O=C(NCc1c(F)cc(F)cc1F)c1cn2c(c(O)c1=O)C(=O)N1CCc3ccc(Cl)cc3[C@H]2C1 [Example 138, (13S)-11-chloro-4-hydroxy-3,5-dioxo-N-(2,4,6-trifluorobenzyl)-3,5,8,13-tetrahydro-7H-6,13-methanobenzo[g]pyrido[1,2-a][1,4]diazonine-2-carboxamide] | 3.17 | 5020 | 8.7 | 0.708 |  |  |
| C[C@]12CC=CCN(C1)C(=O)c1c(O)c(=O)c(C(=O)NCc3c(F)cc(F)cc3F)cn12 [Example 156, (7S)-12-hydroxy-7-methyl-1,11-dioxo-N-(2,4,6-trifluorobenzyl)-1,6,7,11-tetrahydro-3H-2,7-methanopyrido[1,2-a][1,4]diazonine-10-carboxamide] | 1.75 | 13700 | 41.3 | 0.187 |  |  |
| C[C@]12CC(F)CCN(C1)C(=O)c1c(O)c(=O)c(C(=O)NCc3c(F)cc(F)cc3F)cn12 (single isomer, unassigned) [Example 112] | 0.712 | 8030 | 27.8 | 0.182 |  |  |
| O=C(NCc1ccc(F)cc1F)c1cn2c(c(O)c1=O)C(=O)N1CCCC[C@H]2C1 (single isomer, unassigned) [Example 25-2] | 1.46 | 10800 | 1.14 | 0.285 |  |  |
| O=C(NCc1c(F)cc(F)cc1F)c1cn2c(c(O)c1=O)C(=O)N1CCCC[C@@]2(CF)C1 [Example 163-1, (7S)—N-(2,4,6-trifluorobenzyl)-7-(fluoromethyl)-12-hydroxy-1,11-dioxo-1,4,5,6,7,11-hexahydro-3H-2,7-methanopyrido[1,2-a][1,4]diazonine-10-carboxamide] | 1.26 | 20200 | 11.9 | 0.0674 |  |  |
| O=C(NCc1c(F)cc(F)cc1F)c1cn2c(c(O)c1=O)C(=O)N1C[C@@H]2CCCC12CC2 [Example 129, (7'S)-12′-hydroxy-1′,11′-dioxo-N-(2,4,6-trifluorobenzyl)-1′,4′,5′,6′,7′,11′-hexahydrospiro[cyclopropane-1,3′-[2,7]methanopyrido[1,2-a][1,4]diazonine]-10′-carboxamide] | 1.53 |  | 4.21 | 0.309 |  | 7440 |
| C[C@H]1[C@H]2CCCCN1C(=O)c1c(O)c(=O)c(C(=O)NCc3ccc(F)cc3F)cn12 [Example 9, (7R,13S)—N-(2,4-difluorobenzyl)-12-hydroxy-13-methyl-1,11-dioxo-1,4,5,6,7,11-hexahydro-3H-2,7-methanopyrido[1,2-a][1,4]diazonine-10-carboxamide] | 1.8 | 6610 | 1.68 | 0.33 |  |  |
| O=C(NCc1c(F)cc(F)cc1F)c1cn2c(c(O)c1=O)C(=O)N1CC[C@@H](F)C[C@H]2C1 [Example 73-1, (5R,7S)-5-fluoro-12-hydroxy-1,11-dioxo-N-(2,4,6-trifluorobenzyl)-1,4,5,6,7,11-hexahydro-3H-2,7-methanopyrido[1,2-a][1,4]diazonine-10-carboxamide] | 5.2 | > 50000 | 0.897 | 0.715 |  |  |
| CC(C)N1CCN2CC(C1)n1cc(C(=O)NCc3ccc(F)cc3F)c(=O)c(O)c1C2=O (centres unmarked) [Example 34, N-(2,4-difluorobenzyl)-12-hydroxy-5-isopropyl-1,11-dioxo-1,4,5,6,7,11-hexahydro-3H-2,7-methanopyrido[1,2-a][1,4,7]triazonine-10-carboxamide] | 3.3 | 16400 | 9.56 | 2.06 |  |  |
| O=C(NCc1ccc(F)c(Cl)c1F)c1cn2c(c(O)c1=O)C(=O)N1CC2CCc2cccc(F)c21 (centres unmarked) [Example 67, N-(3-chloro-2,4-difluorobenzyl)-4-fluoro-7-hydroxy-6,8-dioxo-6,8,13,14-tetrahydro-12H-5,12-methanobenzo[e]pyrido[1,2-a][1,4]diazonine-9-carboxamide] | 2.44 | 23900 | 1.49 | 0.437 |  |  |
| O=C(NCc1ccc(F)c(F)c1F)c1cn2c(c(O)c1=O)C(=O)N1CCCC[C@H]2C1 [Example 161, (7S)-12-hydroxy-1,11-dioxo-N-(2,3,4-trifluorobenzyl)-1,4,5,6,7,11-hexahydro-3H-2,7-methanopyrido[1,2-a][1,4]diazonine-10-carboxamide] | 2.1 | 4630 | 1.01 | 0.3 |  |  |
